Measurements from patent US5348941A, “Stabilizers for fibroblast growth factors” (Merck & Co., Inc., priority 1992, dated 1994).
Like-named read-outs stand apart in the source and are kept apart here.

Key:
[1] = target: acidic FGF (aFGF) (Homo sapiens, UniProt P05230); assay: biochemical; conditions: for Approx. Molar Ratio (ligand to aFGF at 50% inhibition of aggregation): Table 1; for stabilization of aFGF against heat-induced aggregation: 0.5X and 10X ligand, FIGS. 6-8
Excerpt: Stabilization of aFGF can be determined by several independent methods including turbidity measurements, spectroscopic techniques, maintenance of protein mass, mitogenic activity and copper catalyzed oxidation. Since acidic fibroblast growth factor is unstable at physiological temperatures (undergoing large structural changes, including aggregation, which results in a loss of mitogenic and wound healing activity), human aFGF stability can be monitored by evaluating the turbidity of the pharmaceutical composition by following the kinetics of temperature induced aggregation of unfolded protein.
The kinetics of protein aggregation (stabilization) are monitored by the degree of light scattering at about OD350 nm using a Perkin Elmer Lambda 6 UV-visible spectrophotometer equipped with a six-cuvette holder. Temperature is controlled by circulating a water/ethylene glycol solution through the cell holder. About 0.9 ml of a PBS solution (6 mM sodium phosphate, 120 mM NaCl, pH 7.2) was placed into a cuvette and incubated at the appropriate temperature within the spectrophotometer. Once equilibrated, 100 μl of a 1 mg/ml aFGF solution containing the appropriate amount of ligand (stabilizer) is added to the cuvette and mixed manually by inversion. The change in optical density at 350 nm over time is continuously monitored. A dead time of 30s was present due to the mixing of the six samples in each experiment.
To examine the interactions between aFGF and heparin, a spectrophotometric turbidity assay was developed. This technique monitors the structural stability of aFGF by following the kinetics of temperature induced aggregation of unfolded protein by measurement of the degree of light scattering (turbidity) at 350 nm. The kinetics of protein aggregation were monitored by the degree of light scattering at 350 nm using a Perkin Elmer Lambda 6 UV-visible spectrophotometer equipped with a six-cuvette holder. Temperature was controlled by circulating a water/ethylene glycol solution through the cell holder. A PBS solution, 0.9 ml, (6 mM phosphate, 120 mM NaCl pH 7.2) was placed into a cuvette and incubated at the appropriate temperature within the spectrophotometer. Once equilibrated, 100 μl of a 1 mg/ml aFGF solution containing the appropriate amount of ligand was added to the cuvette and mixed manually by inversion. The change in optical density at 350 nm over time was continuously monitored. A dead time of 30s was present due to the mixing of the six samples in each experiment.
Samples contained 100 μg/ml aFGF in a PBS buffer at pH 7.2 with the indicated ratio of heparin to aFGF (wt:wt).
Samples contained 100 μg/ml protein in a PBS buffer, pH 7.2 with (a) no heparin, (b) 1.5 μg/ml, (c) 3 μg/ml, (d) 5 μg/ml, (e) 10 μg/ml and (f) 50 μg/ml heparin. Only representative data points are shown for clarity. […] Using the initial linear portion of the slope of turbidity vs. time plots as a measure of the rate of aggregation, the effect of polyanion concentration can be quantitatively characterized. The Y-axis represents the maximum rate of turbidity formation (ΔOD350 nm/min) normalized to sample (a) containing no heparin. The curve is drawn through data points for clarity only. The IC50 is the concentration of ligand at which the rate of aggregation is 50% of the control sample.

[2] = target: T1, aFGF (Homo sapiens, UniProt P05230); assay: Thermal denaturation (Tm) of aFGF by circular dichroism; type: biochemical; conditions: for Tm of aFGF, circular dichroism: 3X ligand by weight
T1 construct: The recombinant derived, 140 amino add form is the preferred form of aFGF; N-terminal methionine (MetHaFGF); made in house; host or cells: microbial cells (preferred embodiment)
T1 sequence (P05230 16-155 limits assumed): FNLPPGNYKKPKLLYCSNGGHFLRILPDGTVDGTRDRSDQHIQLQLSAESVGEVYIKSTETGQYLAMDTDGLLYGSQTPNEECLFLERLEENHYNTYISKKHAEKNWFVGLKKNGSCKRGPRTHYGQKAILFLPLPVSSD
Protocol: Circular Dichroism (CD) spectra are measured with an AVIV 62 DS spectropolarimeter. Samples of aFGF at about 100 μg/ml in a PBS buffer (6 mM sodium phosphate, 120 mM NaCl, pH 7.2) containing various ligands are placed into 1 mm pathlength cells and the cell temperature is controlled by circulating a water/ethylene glycol mixture through the cell holder. Thermal denaturation is carded out under computer control by increasing the temperature of the water bath in 2° C. increments, followed by a two-minute equilibration period at each temperature to allow the sample to reach thermal equilibrium. Reproducibility of the midpoint of these temperature melting curves (Tm) is ±2° C.
The maximum Tm values induced by 12 different ligands as determined by circular dichroism measurements at 228 nm are summarized in the first column of Table II. All of these ligands stabilize aFGF by 15°-25° C. in a manner similar to that originally observed with heparin. […] Furthermore, sulfate unions are found near analogous residues in the crystal structure of basic FGF, Eriksson et al., Proc. Natl. Acad. Sd. USA 88:3441-3445 (1991); Zhang et al., Proc. Natl. Acad. Sci. USA 88:3446-3450 (1991). Consequently, it seemed important to examine the ability of these ligands to stabilize aFGF during thermal denaturation as monitored by both fluorescence and circular dichroism. The Tm value of aFGF increased from 27° C. to 43° C. (fluorescence)and 45° C. to 51° C. (CD) when a 100 molar excess (3X by weight) of (IrCl6)^-3 was present. Similarly, sulfate union (120 mM) produced a species that was even more dramatically stabilized, melting at 57° C. (CD).
^(a) Thermal melting temperatures were measured by circular dichroism
Samples contained […] aFGF in PBS buffer pH 7.2 with excess ligand
(1-3× by weight except for 120 mM sodium sulfate and 10 mM

[3] = 40° C., 100 μg/ml aFGF, PBS pH 7.2, read-out: IC50: concentration of ligand at which the rate of heat-induced aggregation of aFGF is 50% of the sample without ligand (converted)
[4] = 40° C., 100 μg/ml aFGF, PBS pH 7.2

acidic FGF (aFGF), sequence (P05230 16-155 limits assumed): as above

| IC50 [1, 3] [µM] | Approx. Molar Ratio (ligand to aFGF at 50% inhibition of aggregation) ([1]; 40° C.) | Molecule | stabilization of aFGF against heat-induced aggregation ([1]; 40° C.) | further results |
| --- | --- | --- | --- | --- |
| 10 | 1.6 | Nc1ncnc2c1ncn2[C@@H]1O[C@H](COP(=O)(O)OP(=O)(O)OP(=O)(O)OP(=O)(O)O)[C@@H](O)[C@H]1O [AT4P] | – | – |
| 250 | 42 | Nc1ncnc2c1ncn2[C@@H]1O[C@H](COP(=O)(O)OP(=O)(O)OP(=O)(O)OC[C@H]2O[C@@H](n3cnc4c(N)ncnc43)[C@H](O)[C@@H]2O)[C@@H](O)[C@H]1O [Ap3A] | – | – |
| 30 | 5 | Nc1ncnc2c1ncn2[C@@H]1O[C@H](COP(=O)(O)OP(=O)(O)OP(=O)(O)OP(=O)(O)OC[C@H]2O[C@@H](n3cnc4c(N)ncnc43)[C@H](O)[C@@H]2O)[C@@H](O)[C@H]1O [Ap4A] | – | – |
| 10 | 1.6 | Nc1ncnc2c1ncn2[C@@H]1O[C@H](COP(=O)(O)OP(=O)(O)OP(=O)(O)OP(=O)(O)OP(=O)(O)OC[C@H]2O[C@@H](n3cnc4c(N)ncnc43)[C@H](O)[C@@H]2O)[C@@H](O)[C@H]1O [Ap5A] | – | – |
| 3 | 0.5 | Nc1ncnc2c1ncn2[C@@H]1O[C@H](COP(=O)(O)OP(=O)(O)OP(=O)(O)OP(=O)(O)OP(=O)(O)OP(=O)(O)OC[C@H]2O[C@@H](n3cnc4c(N)ncnc43)[C@H](O)[C@@H]2O)[C@@H](O)[C@H]1O [Ap6A] | – | – |
| 502 | 80 | O=C(O)[C@H](O)[C@@H](O)[C@H](O[C@@H]1O[C@H](CO)[C@H](O)[C@H](O)[C@H]1O)[C@H](O)CO [Lactobionic acid] | – | number of ligand molecules per aFGF (molar ratio) required for stabilization ([1]; 40° C.): about 80 |
| – | – | Nc1ncnc2nc[nH]c12.O=S(=O)(O)O [adenine sulfate] | actually alestabilize the growth factor | – |
| – | – | OC[C@H]1O[C@@H]2O[C@H]3[C@H](O)[C@@H](O)[C@@H](O[C@H]4[C@H](O)[C@@H](O)[C@@H](O[C@H]5[C@H](O)[C@@H](O)[C@@H](O[C@H]6[C@H](O)[C@@H](O)[C@@H](O[C@H]7[C@H](O)[C@@H](O)[C@@H](O[C@H]8[C@H](O)[C@@H](O)[C@@H](O[C@H]1[C@H](O)[C@H]2O)O[C@@H]8CO)O[C@@H]7CO)O[C@@H]6CO)O[C@@H]5CO)O[C@@H]4CO)O[C@@H]3CO [β-cyclodextrin (sulfur content zero), β-cyclodextrin] | – | Tm of aFGF, circular dichroism [2]: 46 °C |
| – | – | Chondroitin Sulfate B | – | IC50: concentration of ligand at which the rate of heat-induced aggregation of aFGF is 50% of the sample without ligand [1, 4]: 50 µg/mL; effect on rate and extent of aggregation of aFGF ([1]; 40° C., 0.5X ligand by weight): only a slight effect; effect on rate and extent of aggregation of aFGF ([1]; 40° C., 10X ligand by weight): significantly slows down the rate and extent of aggregation |
| – | – | Fucoidin | dramatically stabilize aFGF from heat-induced aggregation | IC50: concentration of ligand at which the rate of heat-induced aggregation of aFGF is 50% of the sample without ligand [1, 4]: 6 µg/mL |
| – | – | chondroitin sulfate A | – | effect on rate and extent of aggregation of aFGF ([1]; 40° C., 0.5X ligand by weight): only a slight effect; effect on rate and extent of aggregation of aFGF ([1]; 40° C., 10X ligand by weight): significantly slows down the rate and extent of aggregation |
| – | – | chondroitin sulfate C | – | effect on rate and extent of aggregation of aFGF ([1]; 40° C., 0.5X ligand by weight): only a slight effect; effect on rate and extent of aggregation of aFGF ([1]; 40° C., 10X ligand by weight): significantly slows down the rate and extent of aggregation |
| – | – | keratan sulfate | much less effective | – |
| – | – | poly-glutamic acid | significantly enhance the thermal stability of aFGF | – |
| – | – | polyaspartic acid [poly-Asp] | significantly enhance the thermal stability of aFGF | – |
| – | – | polyvinyl sulfate | much less effective | – |
| – | – | propyl-hydroxy-β- cyclodextrin | – | stabilization of aFGF, circular dichroism ([2]; 3X by weight): did not stabilize addic FGF; Tm of aFGF, circular dichroism [2]: 47 °C |
| – | – | sulodexide [reference compound] | dramatically stabilize aFGF from heat-induced aggregation | – |

| Molecule | IC50 [1, 3] [µM] | Approx. Molar Ratio (ligand to aFGF at 50% inhibition of aggregation) ([1]; 40° C.) | stabilization of aFGF against heat-induced aggregation ([1]; 40° C.) | further results |
| --- | --- | --- | --- | --- |
| Nc1ncnc2c1ncn2[C@@H]1O[C@H](COP(=O)(O)OP(=O)(O)O)[C@@H](O)[C@H]1O [ADP] | 200 | 33 | – | – |
| Nc1ncnc2c1ncn2[C@@H]1O[C@H](COP(=O)(O)OP(=O)(O)OP(=O)(O)O)[C@@H](O)[C@H]1O [ATP] | – | 5 | significantly enhance the thermal stability of aFGF | IC50 [1]: 30 µM |
| N.N.O=S(=O)(O)O [Ammonium sulfate, ammonium sulfate] | – | 80 | – | number of ligand molecules per aFGF (molar ratio) required for stabilization ([1]; 40° C.): about 80; IC50: concentration of ligand at which the rate of heat-induced aggregation of aFGF is 50% of the sample without ligand [1, 4]: 70 µg/mL |
